Here are results for 7 molecules from patent publication US5395611A, “Phenolic amine depigmenting and antimelanoma agents” (The Governors of the University of Alberta, priority 1992, dated 1995).

By LD50 is commonly meant the dose at which mortality reaches 50%. Low readings indicate greater toxicity, high ones lower toxicity.

For one data set, the system named is melanoma. Particulars: in words; cited from earlier work.
The subject of a further data set is follicular melanocytes. Particulars: in words; cited from earlier work.
For data set [1] the following is noted: acute toxicity, evaluated 100 to 1600 mg/Kg (Miura et al); cited from earlier work.
The test system of another data set is black hair follicles. The data set is described as follows: Depigmentation of new hair (eumelanin/PTCA content). It counts as in vivo, C57BL/6J black mice. Particulars: for Depigmentation of new growth of black hair follicles: in words; for PTCA Content / Depigmentation: 300 mg/kg daily for 14 days, hair day 22.
In a further data set the test system is melanocytes. The data set is described as follows: Light and electron microscopy of follicular melanocytes. The class given is in vivo, mice. The note with it: for Cytotoxicity for follicular depigmentation: conclusion in words; for Electron microscopy of melanocytes/melanosomes: 10 days. The method, then: In […] of 4 mice (1 control and 1 for each compound) were treated daily with the control or compound injected i.p. The compounds tested were 4-S-CAP, N-Ac-4-S-CAP and α-Me-4-S-CAP. Samples of skin and regrowing hair follicles were excised under brief general anaesthesia on day 10 (late anagen phase), fixed in Karnovsky's solution (2.5% glutaraldehyde and 2.5% paraformaldehyde in 011M cacodylate buffer), and refixed in 1% osmium tetroxide in cadodylate buffer. Tissues were stained en bloc with 1.5% uranyl acetate in o.1M veronal buffer for 30 min, dehydrated in graded ethanol solutions, embedded in epoxy resin, and sectioned with a Potter-Blum ultramicrotome MT II. Sections 1.0 μm thick were stained with methylene blue for light microscopy, thin sections were stained with led citrate for electron microscopy.

For another data set, the system named is B16 melanoma. The data set is described as follows: In vivo growth inhibition of s.c. inoculated B16 melanoma. Set-up: species or system mouse. The method, then:
Briefly, excised tumours were homogenized in normal saline.
The in vivo antimelanoma effect of the compounds were evaluated by percent growth inhibition of inoculated tumour (% g.i.). The percent g.i. was computed from the mean tumour volume at day 12 or 13 of the experiments; i.e., 100× (1- treated group/control group). Tumour volume was calculated by the following formula:
tumour volume=long axis×(short axis)^2 ×1/2.

The next data set in a line: in vivo. Particulars: mouse. The method, then: 3:1-85 1972. In accordance with this Protocol, ten to fifteen mice were used in each test group. They were weighed and randomized at day one after s.c. inoculation of B16 melanoma cells. From day five, the phenolic melanin precursors were administered i.p. daily for nine days. The test compounds were dissolved in normal saline, and sterilized by heating to 100° C. for 2 minutes. […] They were administered j.p. with the following doses: 400 mg/Kg - 4-S-CAP; 200 to 300 mg/Kg - 4-S-CAP; and 200 to 1200 mg/Kg - N-Ac-4-S-CAP. A catalytic amount of L-dopa, 25 mg/Kg and antidecarboxylase, carbidopa, 400 mg/Kg, were also administered. Carbidopa was given one hour prior to L-dopa administration. DTIC (NSC 4538) was used as a control drug at a dose of 60 mg/Kg. Acute toxicity of 4-S-CP and 4-S-CAP was evaluated from 100 to 1600 mg/Kg.
The B16 mouse melanoma was maintained by s.c. inoculation of tumour cells into the back of C57BL7J mice (5 to 6 weeks, female). […] Briefly, excised tumours were homogenized in normal saline. The homogenized tumour cells were then passed through a sterile 80 mesh stainless steel screen, washed with normal saline, centrifuged (500 g. for 10 minutes) and resuspended in normal saline. Suspensions of viable melanoma cells at the concentration of 1×10^6 per 0.1 ml were inoculated s.c. into both the right and left inguinal areas of C57BL/6J mice (female, 5 to 6 weeks old, 18 to 20 gm).

The test system of a further data set is mushroom tyrosinase. The data set is described as follows: Enzyme kinetics for tyrosinase. The class given is biochemical. Particulars: in words. The method, then: (§1) Mushroom tyrosinase (400 units/mg) and plasma MAO (1000 units/gm) were obtained from Sigma Chemical Co. (St. Louis, Mo., USA). A reaction mixture consisted of a substrate of 7 to 8 different concentrations (40 to 500 μM for mushroom tyrosinase and 20 to 200 μM for MAO) and of either mushroom tyrosinase (2.5 μg) or MAO (10 μg) in 1.0 mL of 0.05M sodium phosphate buffer, pH 6.8 and 7.4 respectively. The reactions were carried out at 37° C. in a shaking water bath, and stopped by taking 100 μL of the reaction mixture and adding it to 900 μL of 0.4M HCLO4. The disappearance of substrate was followed using HPLC (high pressure liquid chromatography) Km and Vmax values were calculated from the Lineweaver-Burk plots.
^a mushroom tyrosinase; 11 unit/ml of tyrosinase was used. One enzyme
unit will cause an increase in A280 of 0.001 per min at pH 6.8 at
25° C. using Ltyrosine as substrate.

The test system of data set [2] is plasma monoamine oxidase (MAO). The data set is described as follows: Enzyme kinetics for monoamineoxidase (plasma MAO). The class given is biochemical. The note with it: in words. The method, then:
as §1

The test system of a further data set is B16F10 melanoma colonies. Description: Melanoma-colony formation in the lungs. The class given is in vivo, mouse. The method, then: Murine B16F10 melanoma cell line with a strong metastatic property to form tumour colonies in the lungs was obtained from Dr. Longenecker, Department of Immunology, University of Alberta. Such cell line is well recognized and readily available as reported in Miura et al, supra. The cells were grown in T-75 flasks in dulbecco's MEM available from Gipco Lab Inc., Grand Island, N.Y., supplemented with 10% fetal calf serum, also obtained from Gipco, penicillin (100 μ/ml) and streptomycin (100 μg/ml). The cells were incubated at 37° C. in humidified atmosphere of 5% CO2 in air. […] Viable cells were identified by trypan blue dye exclusion and counted. The cell suspension was diluted to the desired concentration. […] On day zero, the mice were inoculated via the lateral tail vein with 5×10^4 cells in 0.2 ml of N saline. The test drugs were dissolved in normal saline, sterilized by membrane filtration, and administered in a dose of 300 mg/Kg (4 -S-CAP) or 900 mg/Kg (N-Ac-4-S-CAP); starting on day five, the control solution or drug was injected i.p. daily for 14 days. On day 26, the mice were killed by cervical dislocation, their lungs were removed, and the number of melanoma colonies was counted under a dissecting microscope. The results were expressed as percentage reduction in the number of colonies: [a-b/a]×100, where a=colonies in control group and b=colonies in experimental group.

Data set [3] in a line: Urinary excretion after i.p. injection (metabolic assay). The class given is in vivo, mice. The method, then:
Fifteen mice randomly divided into three groups of five were injected i.p. with a test agent (300 mg/kg) dissolved in N saline solution. Group 1 were injected with 4-S-CAP, group 2 with N-Ac-4-S-CAP, group 3 were controls. The mice are kept in metabolic cages; their urine is collected 3, 8 and 24 hr after injection, and the 4-S-CAP and N-Ac-4-S-CAP content is measured by HPLC in a system consisting of a Waters 600E liquid chromatography, with a Bondapak C18 column (3.0×300 mm; particle size, 10 μm) and a Waters 460 electrochemical detector. Mobile phase: 0.1M potassium phosphate buffer, pH 2.1, containing 0.1 mM Na2 EDTA methanol, 80:20 (v/v); column temperature, 60° C.; flow rate 1.0 ml/min. Urine samples are hydrolysed with 0.1M HCl before assay, and the phenols are detected at 850 mV against an Ag/AgCl reference electrode.

For data set [4] the following is noted: hydroquinone preparations; cited from earlier work.
In a further data set the test system is skin. Particulars: cited from earlier work.

“Also recorded” adds a separate entry of the source.

Protocol for black hair follicles: Female progeny were used in this testing when approximately 8 weeks old and weighing 17 grams.
Thirty mice were randomized into 6 groups of 5 (1 control and 1 for each compound). Starting on day 1, daily for 14 days the agent was injected i.p. or was infiltrated s.c. in an area where hair follicles had been plucked; the dose was 300 mg/kg body weight.
In the same 30 mice, hair follicles were harvested on day 22 (early telogen phase) and their eumelanin content analyzed. […] Briefly, a 10-mg hair sample is homogenized in water at a concentration of 10 mg/ml; the 200-μl homogenate is transferred to a screw-capped test tube, mixed with 1M H2 SO4 (800 μL) and oxidized with 3% KMnO4. The product, pyrrole-2,3,5-tricarboxylic acid (PTCA), is analyzed by HPLC with a UVL detector; samples are measured in duplicate. The eumelanin content is expressed as PTCA (ng/mg) against the PCTA content of BALB/c albino mice as control (≤10 ng/mg, the background value with our method, in which 1 ng corresponds roughly to a eumelanin content of 50 ng), and the degree of depigmentation is expressed as a percentage: (PTCA content of control sample minus PTCA content of experimental sample)/(PCTA content of control sample)×100.

For `NC(CSc1ccc(O)cc1)C(=O)O` (stereo not drawn) [4-S-CP, 4-S-cysteinylphenol], the “Inhibition of melanoma growth” value in the data set with melanoma is on record as “some inhibition of melanoma growth, although not as active as the 4-S-CAP”. For the same molecule, in the data set with follicular melanocytes, the “Effect on black hair follicles / black hair” value is “depigmentation of black hair as manifested by loss of functioning melanocytes”. Further, the Lethal dose in [1] was 600 mg/kg.

Consider `NCCCSc1ccc(O)cc1` [4-S-HomoCAP], for which the “Depigmentation of new growth of black hair follicles” value with black hair follicles is listed as “much more depigmentation when given s.c. than i.p”. In addition, the “PTCA Content” value with black hair follicles (s.c.) was found to be 397.7 ± 279.3 ng/mg.

In the case of `CN(C)CCSc1ccc(O)cc1` [N,N-DiMe-4-S-CAP], the results for the Depigmentation in the data set with black hair follicles (i.p.) and in the data set on black hair follicles (s.c.) were 7.3% and 6.1%, respectively. Further, the “PTCA Content” value is 1009.0 ± 193.5 ng/mg with black hair follicles (i.p.) and 1023.4 ± 110.1 ng/mg with black hair follicles (s.c.). Also, the figures for the “Depigmentation of new growth of black hair follicles” value in the data set on black hair follicles and in the data set with black hair follicles (listed as N,N-Di-Me-4-S-CAP) were “the lowest; also recorded: no significant depigmentation” and “no visible changes in pigmentation in new follicles”, respectively.

Consider `CC(=O)NCCSc1ccc(O)cc1` [N-Ac-4-S-CAP, N-ACETYL-4-S-CYSTEAMINYLPHENOL], for which the “Depigmentation of new growth of black hair follicles” value with black hair follicles is “most marked; also recorded: no statistically significant difference in melanin content between hair follicles with N-Ac-4-S-CAP and control albino mice”. Further, in the data set with melanocytes, the “Cytotoxicity for follicular depigmentation” value is “greatest cytotoxicity for follicular depigmentation”. In the data set with melanocytes (i.p.), the “Electron microscopy of melanocytes/melanosomes” value is “no melanocytes or melanosomes were visible”. In the data set on melanocytes (i.p., day 10), the “Light microscopy of hair follicles” value is recorded as “neither functioning melanocytes nor melanin pigments remained in the follicles”. The “% Gi (growth inhibition)” value amounted to 39.8% in the data set on B16 melanoma (Experiment I, 200 mg/Kg); 57.3% in the data set on B16 melanoma (Experiment I, 400 mg/Kg); 63.18% with B16 melanoma (Experiment I, 600 mg/Kg); 74.4% in the data set on B16 melanoma (Experiment I, 800 mg/Kg); 32.0% in the data set on B16 melanoma (Experiment II, 200 mg/Kg); 34.0% with B16 melanoma (Experiment II, 400 mg/Kg). The “% Gi (growth inhibition)” value is on record as 63.4% with B16 melanoma (Experiment II, 800 mg/Kg) and 70.7% with B16 melanoma (Experiment II, 1200 mg/Kg). In addition, in the data set with B16 melanoma (Experiment II, 200 mg/Kg), the “Tumour Volume” value is reported as 370 ± 37 mm^3. In addition, the “Growth inhibition of B16 melanoma” value with B16 melanoma (in words) was “dose-dependent linear growth inhibition; also recorded: significant reduction in size of s.c. inoculated melanoma”. The “Single dose toxicity level” value in “in vivo” is reported as ~1,400 mg/kg of body weight. In addition, in “in vivo” (ip), the LD50 was at most 1400 mg/kg. The MTD in the data set “in vivo” (ip) worked out at 1200 mg/kg. In addition, the Substrate for tyrosinase result with mushroom tyrosinase is recorded as “tyrosinase substrate”. The “Substrate for plasma MAO” value in data set [2] was “not, however, a substrate for plasma MAO”. The “Colonies, % control” value with B16F10 melanoma colonies (900 mg/kg i.p. daily for 14 days, day 26) is listed as 24.9%. Moreover, in the data set on B16F10 melanoma colonies (in words), the “Number of B16F10 melanoma colonies” value is listed as “significantly reduced”. The “Melanoma lung colonies reduced to % of original volume” value in the data set with B16F10 melanoma colonies (summary statement) is recorded as 25%. The “Urinary excretion of unchanged compound, amount” value came to 7.23e-07 ± 2.7e-08 mg in [3] (3 h after i.p. injection, 5.2 mg/mouse, unit printed ng); 1.034 ± 0.033 mg in data set [3] (8 h after i.p. injection, 5.2 mg/mouse); 1.089 ± 0.028 mg in data set [3] (24 h after i.p. injection, 5.2 mg/mouse). The “i.p. dose excreted as 4-S-CAP, amount” value in [3] (urine, i.p. injection) is 0.066 ± 0.003 mg. Further, the dose excreted at 3 h in data set [3] (urine, ip, 300 mg/kg, 3 h after i.p. injection, 5.2 mg/mouse, read-out: Urinary excretion of unchanged compound, % of dose) was 13.9%. Moreover, in data set [3] (urine, ip, 300 mg/kg, 8 h after i.p. injection, 5.2 mg/mouse, read-out: Urinary excretion of unchanged compound, % of dose), the dose excreted at 8 h was determined as 19.8%. Besides, the dose excreted at 24 h in data set [3] (urine, ip, 300 mg/kg, 24 h after i.p. injection, 5.2 mg/mouse, read-out: Urinary excretion of unchanged compound, % of dose) worked out at 20.4%.

Consider `Oc1ccc(O)cc1` [hydroquinone], for which the Stability result in data set [4] is reported as “very unstable”. Besides, in the data set on skin (hydroquinone preparations), the Skin irritation result is given as “cause skin irritation”. Also, the “Permanent whitening of the skin” value with skin (prolonged period and high concentration) is listed as “can also cause permanent whitening of the skin”.

As to `COC(=O)C(N)CSc1ccc(O)cc1` (stereo not drawn) [methyl ester of 4-S-CP], in the data set on melanoma, the “Inhibition of melanoma growth” value is “some inhibition of melanoma growth, although not as active as the 4-S-CAP”.

On to `CC(N)CSc1ccc(O)cc1` (stereo not drawn) [α-Me-4-S-CAP], for which the Depigmentation in the data set on black hair follicles (i.p., 300 mg/kg) amounted to 89%; in the data set on black hair follicles (s.c., 300 mg/kg), 58%. In the data set on black hair follicles, the “Depigmentation of new growth of black hair follicles” value is given as “i.p. administration induced more depigmentation than s.c”. Moreover, the “Irritation of the skin” value in the data set on black hair follicles (s.c. administration, plucked area) was “some irritation of the skin in the plucked area”. Moreover, the “Cytotoxicity for follicular depigmentation” value with melanocytes is on record as “greatest cytotoxicity for follicular depigmentation”. For the same molecule, the “Electron microscopy of melanocytes/melanosomes” value with melanocytes (i.p.) was “contained immature melanosomes at stages II and III”. In addition, in “in vivo”, the “Single dose toxicity level” value was ~500 mg/kg of body weight.
